The record followed here is PubChem BioAssay AID280 (DTP/NCI, 2004).

The assay relates to nude mice, LOX melanoma ip, survival T/C. Description: NCI In Vivo Anticancer Drug Screen. Data for tumor model Human Amelanotic Melanoma (LOX) (intraperitoneal) in NU/NU BALB/C (nude) mice. The following applies: endpoint: median survival time, higher = longer survival. As to the method: The antitumor activity of compounds was measured in mice bearing transplantable tumors. Survival or tumor size were measured and the results are expressed as the measurement made in the treated group (T) divided by the measurement made in the vehicle treated control group (C). The tumor model used in this assay is Human Amelanotic Melanoma (LOX) (intraperitoneal) in NU/NU BALB/C (nude) mice

The mark [1] stands for this setting: dose: 37.5 mg/kg/injection, schedule: Q04DX003 (ip), vehicle: saline with Tween-80.
Where [2] appears, read: dose: 75.0 mg/kg/injection, schedule: Q04DX003 (ip), vehicle: saline with Tween-80.
The mark [3] stands for this setting: dose: 15.0 mg/kg/injection, schedule: Q04DX003 (ip), vehicle: saline with Tween-80.
The mark [4] stands for this setting: dose: 30.0 mg/kg/injection, schedule: Q04DX003 (ip), vehicle: saline with Tween-80.
Where [5] appears, read: dose: 120.0 mg/kg/injection, schedule: Q04DX003 (ip), vehicle: saline with Tween-80.
The mark [6] stands for this setting: dose: 50.0 mg/kg/injection, schedule: Q04DX003 (ip), vehicle: saline with Tween-80.
[7] abbreviates: dose: 100.0 mg/kg/injection, schedule: Q04DX003 (ip), vehicle: saline with Tween-80.

Where “and” joins values, the source holds several entries; their conditions need not be identical. Identical values can stand only once. Inconclusive results and toxic doses are left out.

For `COc1cc(NCc2ccc3nc(N)nc(N)c3c2C)cc(OC)c1OC`, the T/C is, setting by setting: (dose: 7.5 mg/kg/injection, schedule: Q04DX003 (ip), vehicle: Klucel (hydroxypropylcellulose) (HPC)) 151 % of control; (dose: 15.0 mg/kg/injection, schedule: Q04DX003 (ip), vehicle: Klucel (hydroxypropylcellulose) (HPC)) 118 % of control; (dose: 30.0 mg/kg/injection, schedule: Q04DX003 (ip), vehicle: Klucel (hydroxypropylcellulose) (HPC)) 118 % of control; (dose: 60.0 mg/kg/injection, schedule: Q04DX003 (ip), vehicle: Klucel (hydroxypropylcellulose) (HPC)) 123 % of control.

In the case of `[Cl][Hg][Cl]`, the T/C (dose: 0.63 mg/kg/injection, schedule: Q04DX003 (ip), vehicle: saline) was 88 % of control and 96 % of control; the T/C (dose: 2.5 mg/kg/injection, schedule: Q04DX003 (ip), vehicle: saline) is 95 % of control; the T/C (dose: 5.0 mg/kg/injection, schedule: Q04DX003 (ip), vehicle: saline) was 91 % of control.

Take `NCCCSc1ccccc1`: the T/C is, setting by setting: (dose: 9.38 mg/kg/injection, schedule: Q01DX009 (ip), vehicle: saline) 94 % of control; (dose: 18.75 mg/kg/injection, schedule: Q01DX009 (ip), vehicle: saline) 99 % of control; (dose: 37.5 mg/kg/injection, schedule: Q01DX009 (ip), vehicle: saline) 99 % of control; (dose: 75.0 mg/kg/injection, schedule: Q01DX009 (ip), vehicle: saline) 94 % of control; (dose: 150.0 mg/kg/injection, schedule: Q01DX009 (ip), vehicle: saline) 89 % of control.

As for `Cn1c2ccccc2c2ccc3c(c21)C(=O)C=CC3=O`, the T/C by setting is: (dose: 9.38 mg/kg/injection, schedule: Q04DX003 (ip), vehicle: saline with Tween-80) 90 % of control; (dose: 18.75 mg/kg/injection, schedule: Q04DX003 (ip), vehicle: saline with Tween-80) 94 % of control; under setting [1], 88 % of control; under setting [2], 112 % of control; (dose: 150.0 mg/kg/injection, schedule: Q04DX003 (ip), vehicle: saline with Tween-80) 100 % of control.

For the molecule `C=COC(=O)C(Cc1ccccc1)NC(=O)OCc1ccccc1` (stereo unspecified), the T/C is, setting by setting: (dose: 7.5 mg/kg/injection, schedule: Q04DX003 (ip), vehicle: saline with Tween-80) 97 % of control; under setting [3], 101 % of control; under setting [4], 105 % of control; (dose: 60.0 mg/kg/injection, schedule: Q04DX003 (ip), vehicle: saline with Tween-80) 95 % of control; under setting [2], 89 % of control; under setting [5], 104 % of control.

Take `NC(=O)CCC(N)C(=O)O` (stereo unspecified): the T/C was 101 % of control (dose: 75.0 mg/kg/injection, schedule: Q04DX003 (ip), vehicle: suspension in saline); 90 % of control (dose: 150.0 mg/kg/injection, schedule: Q04DX003 (ip), vehicle: suspension in saline); 95 % of control (dose: 300.0 mg/kg/injection, schedule: Q04DX003 (ip), vehicle: suspension in saline); 102 % of control (dose: 600.0 mg/kg/injection, schedule: Q04DX003 (ip), vehicle: suspension in saline); 101 % of control (dose: 1200.0 mg/kg/injection, schedule: Q04DX003 (ip), vehicle: suspension in saline).

Turning to `COc1cc2c(c3c1c(=O)c1ccccc1n3C)C=CC(C)(C)O2`, the T/C is 104 % of control (dose: 12.5 mg/kg/injection, schedule: Q04DX003 (ip), vehicle: Klucel (hydroxypropylcellulose) (HPC)); 107 % of control and 97 % of control (dose: 25.0 mg/kg/injection, schedule: Q04DX003 (ip), vehicle: Klucel (hydroxypropylcellulose) (HPC)); 107 % of control (dose: 50.0 mg/kg/injection, schedule: Q04DX003 (ip), vehicle: Klucel (hydroxypropylcellulose) (HPC)); 87 % of control (dose: 100.0 mg/kg/injection, schedule: Q04DX003 (ip), vehicle: Klucel (hydroxypropylcellulose) (HPC)).

As to `CCCn1c(SC)nc(COC(=O)NC)c1COC(=O)NC`, the T/C was 104 % of control (dose: 30.0 mg/kg/injection, schedule: Q04DX003 (ip), vehicle: saline); 123 % of control (dose: 60.0 mg/kg/injection, schedule: Q04DX003 (ip), vehicle: saline); 98 % of control (dose: 106.8 mg/kg/injection, schedule: Q04DX003 (ip), vehicle: water); 119 % of control (dose: 120.0 mg/kg/injection, schedule: Q04DX003 (ip), vehicle: saline); 103 % of control (dose: 160.1 mg/kg/injection, schedule: Q04DX003 (ip), vehicle: water); 191 % of control (dose: 240.0 mg/kg/injection, schedule: Q04DX003 (ip), vehicle: saline). Further, the T/C was 122 % of control (dose: 240.0 mg/kg/injection, schedule: Q04DX003 (ip), vehicle: water); 189 % of control (dose: 359.8 mg/kg/injection, schedule: Q04DX003 (ip), vehicle: water); 170 % of control (dose: 480.0 mg/kg/injection, schedule: Q04DX003 (ip), vehicle: saline).

Take `C=C1c2cccc(O)c2C(O)=C2C(=O)[C@]3(O)C(O)=C(C(N)=O)C(=O)[C@@H](N(C)C)[C@@H]3[C@@H](O)[C@H]12`: the T/C is 94 % of control (dose: 37.5 mg/kg/injection, schedule: Q04DX003 (ip), vehicle: Klucel (hydroxypropylcellulose) (HPC)); 91 % of control (dose: 75.0 mg/kg/injection, schedule: Q04DX003 (ip), vehicle: Klucel (hydroxypropylcellulose) (HPC)); 92 % of control (dose: 300.0 mg/kg/injection, schedule: Q04DX003 (ip), vehicle: Klucel (hydroxypropylcellulose) (HPC)).

As to `CC1/C=C/C=C/CC/C=C/C=C/C=C/C=C/C(OC2OC(C)C(O)C(N)C2O)CC2OC(CC(O)C(O)CCC(O)CC(O)CC(O)CC(=O)OC(C)C(C)C1O)CC(O)C2C(=O)O` (stereo unspecified), the T/C was 101 % of control (dose: 25.0 mg/kg/injection, schedule: Q04DX003 (ip), vehicle: saline with Tween-80); 101 % of control under setting [6]; 111 % of control under setting [7].

As for `COc1cc(C2CC(C)(O)Oc3cc4c(cc32)OCO4)cc(OC)c1OC` (stereo unspecified), the T/C runs as follows: under setting [6], 109 % of control and 98 % of control; under setting [7], 96 % of control; (dose: 200.0 mg/kg/injection, schedule: Q04DX003 (ip), vehicle: saline with Tween-80) 93 % of control.

Turning to `CC(O)CCC(=O)c1ccoc1` (stereo unspecified), the T/C was 103 % of control and 118 % of control and 119 % of control (dose: 10.8 mg/kg/injection, schedule: Q01DX001 (ip), vehicle: propolene glycol); 117 % of control (dose: 30.0 mg/kg/injection, schedule: Q01DX001 (ip), vehicle: propolene glycol).

`COc1ccc(N=N/N=c2\sc3cc(OC)ccc3n2C)cc1`: the T/C is, setting by setting: under setting [3], 121 % of control; under setting [4], 117 % of control; under setting [5], 121 % of control.

As for `CN=C(N)N/N=C(\C)c1ccc2sc3ccc(/C(C)=N/NC(N)=NC)cc3c2c1`, the T/C is 121 % of control under setting [1]; 117 % of control under setting [2]; 182 % of control (dose: 300.0 mg/kg/injection, schedule: Q04DX003 (ip), vehicle: saline with Tween-80); 116 % of control (dose: 600.0 mg/kg/injection, schedule: Q04DX003 (ip), vehicle: saline with Tween-80).

Turning to `COC(=O)NC1C(C)OC(OC2C/C=C(/C)C3C=CC4C(OC5CC(OC6CC(OC7CC(O)C(O)C(C)O7)C(OC7CC(O)C(OC)C(C)O7)C(C)O6)C(O)C(C)O5)C(C)CC(C)C4C3(C)/C(O)=C3\C(=O)OC4(CC(C)C(CO)=CC4/C=C\2C)C3=O)CC1(C)[N+](=O)[O-]` (stereo unspecified), the T/C (dose: 75.0 mg/kg/injection, schedule: Q04DX003 (ip), vehicle: water) is 93 % of control and the T/C (dose: 150.0 mg/kg/injection, schedule: Q04DX003 (ip), vehicle: water) is 120 % of control.

`CC(/C=C/C=C/C=C/C=C/C=C/C(O)=C1/C(=O)C(CCC(=O)O)N(C)C1=O)=C\C(C)C(OC1CC(O)C(O)C(C)O1)C(C)C` (stereo unspecified): the T/C is 114 % of control (dose: 8.3 mg/kg/injection, schedule: Q04DX003 (ip), vehicle: water); 114 % of control (dose: 13.8 mg/kg/injection, schedule: Q04DX003 (ip), vehicle: water); 150 % of control (dose: 16.0 mg/kg/injection, schedule: Q04DX003 (ip), vehicle: water); 168 % of control (dose: 32.0 mg/kg/injection, schedule: Q04DX003 (ip), vehicle: water); 116 % of control (dose: 107.0 mg/kg/injection, schedule: Q04DX003 (ip), vehicle: water).
